Tests used:
[1] = tested on: GT1b/2a NS5B chimeric replicon; assay: HCV replicon assay, GT1b/2a NS5B chimeric replicon, transient transfection; type: cell-based, hepatitis C virus; conditions: Hepatitis C virus, Huh-7, 72 h, read-out: GT2a EC50, GT1b/2a NS5B chimeric replicon, Huh-7 cells, luciferase, 72 hours
Experimental: (§1) The antiviral activity of the test compounds was assessed in the wild type GT1b (Con1), GT1a (H77), and GT1b/2a, GT1b/3a, GT1b/4a and GT1b/5a NS5B chimeric replicons, as well as the NS5B mutant replicons listed in Table 2a and 2b.
(§2) To generate HCV NS5B chimeric replicons, the GT1 b replicon was used as a backbone with the NS5B gene replaced with the NS5B gene of GT2a, GT3a, GT4a and GT5a derived from clinical isolates. These NS5B genes were cloned into the GT1b backbone and were confirmed by sequencing.
(§3) All the replicon assays were luciferase based in Huh-7 cells, either in stable format (GT1b and GT1a) or by transient transfection by electroporation (chimeric and mutant replicons). For a standard HCV replicon assay, stable or transiently transfected Huh-7 cells were seeded in 96-well plates (5,000 cells/well), cultured in DMEM containing 10% FBS, and incubated at 37° C., 5% CO2. On the following day, test compounds were diluted with assay media and added to the appropriate wells (final DMSO concentration in the cell culture medium was 0.5%). Assay reference positive control was included in each run to ensure assay performance. Cells were incubated at 37° C., 5% CO2 for 72 hours, at which time the cells were still sub-confluent. The antiviral activity was determined by measuring replicon reporter firefly luciferase activity using Bright Glo kit in accordance with the protocol provided by the supplier (Promega). The toxicity of the test compounds was assessed by CytoTox-1 cell proliferation assay (Promega). The half maximal effective concentration (EC50) and the half maximal toxic concentration (TC50) values were calculated using the GraphPad Prism software.

[2] = tested on: GT1a L159F NS5B mutant replicon; assay: HCV NS5B mutant replicon assay, GT1a L159F; type: cell-based; conditions: Hepatitis C virus, Huh-7, 72 h, read-out: GT1a L159F EC50
Experimental: as §1
(§4) The HCV replicon mutants were generated by site-directed mutagenesis (SDM). The SDM was performed by PCR and the PCR fragments were inserted into the backbone replicon construct. The inserted PCR fragments and the mutants were confirmed by sequencing.
as §3

[3] = tested on: GT1b C316N NS5B mutant replicon; assay: HCV NS5B mutant replicon assay, GT1b C316N; type: cell-based; conditions: Hepatitis C virus, Huh-7, 72 h, read-out: GT1b C316N EC50
Experimental: as §1, §4, §3

[4] = tested on: GT1b/4a NS5B chimeric replicon; assay: HCV replicon assay, GT1b/4a NS5B chimeric replicon, transient transfection; type: cell-based, hepatitis C virus; conditions: Hepatitis C virus, Huh-7, 72 h, read-out: GT4a EC50, GT1b/4a NS5B chimeric replicon, Huh-7 cells, luciferase, 72 hours
Experimental: as §1, §2, §3

[5] = tested on: GT1b/3a NS5B chimeric replicon; assay: HCV replicon assay, GT1b/3a NS5B chimeric replicon, transient transfection; type: cell-based, hepatitis C virus; conditions: Hepatitis C virus, Huh-7, 72 h, read-out: GT3a EC50, GT1b/3a NS5B chimeric replicon, Huh-7 cells, luciferase, 72 hours
Experimental: as §1, §2, §3

[6] = tested on: GT3a L159F NS5B mutant replicon; assay: HCV NS5B mutant replicon assay, GT3a L159F; type: cell-based; conditions: Hepatitis C virus, Huh-7, 72 h, read-out: GT3a L159F EC50
Experimental: as §1, §2, §4, §3

[7] = tested on: Huh-7 cells; assay: Toxicity by CytoTox-1 cell proliferation assay (TC50) and selectivity index; type: cell-based; conditions: TC50 by CytoTox-1 cell proliferation assay over replicon EC50, Huh-7 cells
Experimental: as §3

[8] = tested on: GT1a (H77) HCV replicon; assay: HCV replicon assay, wild type GT1a (H77), luciferase based, stable format; type: cell-based, hepatitis C virus; conditions: Hepatitis C virus, GT1A, Huh-7, 72 h, Huh-7 cells
Experimental: as §1, §3

[9] = tested on: GT3a V321A NS5B mutant replicon; assay: HCV NS5B mutant replicon assay, GT3a V321A; type: cell-based; conditions: Hepatitis C virus, Huh-7, 72 h, read-out: GT3a V321A EC50
Experimental: as §1, §2, §4, §3

[10] = tested on: GT3a S282T NS5B mutant replicon; assay: HCV NS5B mutant replicon assay, GT3a S282T; type: cell-based; conditions: Hepatitis C virus, Huh-7, 72 h, read-out: GT3a S282T EC50
Experimental: as §1, §2, §4, §3

[11] = tested on: GT1b (Con1) HCV replicon; assay: HCV replicon assay, wild type GT1b (Con1), luciferase based, stable format; type: cell-based, hepatitis C virus; conditions: Huh-7 cells
Experimental: as §1, §3

[12] = tested on: GT1b L159F NS5B mutant replicon; assay: HCV NS5B mutant replicon assay, GT1b L159F; type: cell-based; conditions: Hepatitis C virus, Huh-7, 72 h, read-out: GT1b L159F EC50
Experimental: as §1, §4, §3

[13] = tested on: GT1b S96T NS5B mutant replicon; assay: HCV NS5B mutant replicon assay, GT1b S96T; type: cell-based; conditions: Hepatitis C virus, Huh-7, 72 h, read-out: GT1b S96T EC50
Experimental: as §1, §4, §3

[14] = Nucleoside phosphoester stability in fetal bovine serum; type: in vitro ADME; conditions: 100 μM, 37° C.
Experimental: In another test, mononucleotide stock solutions were prepared at 10 mM in DMSO, and 10 μL of each stock solution was added to 1 mL of fetal bovine serum (FBS) to provide 100 μM of final compound concentration. These samples incubated for 24 h in a 37° C. water bath and 100 μL aliquots removed at t=0, 1, 2, 4, 6 and 24 hours. Individual samples were precipitated with 200 μL cold acetonitrile, the debris was pelleted at 14K RPM for 30 min at 4° C., and the supernatant was removed and subjected to LCMS analysis as described below.
Mobile phase A: 95:5 H2O:acetonitrile, 10 mM ammonium acetate, 0.01% formic acid
Mobile phase B: 95:5 acetonitrile:H2O, 10 mM ammonium acetate, 0.01% formic acid
Extracted ion chromatograms generated using M+1H and ammonium adduct for each compound.

[15] = Hepatitis C virus, GT1B, Huh-7, 72 h

| Compound | EC50 [1] [nM] | EC50 [2] [nM] | EC50 [3] [nM] | EC50 [4] [nM] | EC50 [5] [nM] | EC50 [6] [nM] | Selectivity Index (TC50/EC50) [7] | EC50 [8] [nM] | EC50 [9] [nM] | EC50 [10] [nM] | EC50 [11, 15] [nM] | EC50 [12] [nM] | EC50 [13] [nM] | % t = 0 ([14]; 0 hours) [%] | % t = 0 ([14]; 1 hour) [%] | % t = 0 ([14]; 2 hours) [%] | % t = 0 ([14]; 4 hours) [%] | % t = 0 ([14]; 6 hours) [%] | % t = 0 ([14]; 24 hours) [%] | EC50 ([11]; 72 hours) [nM] |
| --- | --- | --- | --- | --- | --- | --- | --- | --- | --- | --- | --- | --- | --- | --- | --- | --- | --- | --- | --- | --- |
| CC(C)OC(=O)[C@H](C)N[P@](=O)(OC[C@H]1O[C@@H](n2ccc(=O)[nH]c2=O)[C@](C)(F)[C@@H]1O)Oc1ccccc1 [sofosbuvir, reference compound] | 36 | 80 | 25 | 54 | 90 to 95 | 134 | >100 | 40 to 61 | 166 | 84 to 572 | 36 to 66 | 63 | 62 to 314 | 100.0 | 96.2 | 96.5 | 89.0 | 91.6 | 102.2 | – |
| CC(C)(C)SSc1ccccc1CCOP1(=O)OC[C@H]2O[C@@H](n3ccc(=O)[nH]c3=O)[C@](C)(F)[C@@H]2O1 (single isomer, unassigned) [Compound 7A] | 3 | 11 | 9 | 5 | 8 | 15 | >500 | 5 to 8 | 12 | 44 | 9 | 15 to 17 | 8 | 100.0 | 101.0 | 101.0 | 100.9 | 92.5 | 87.9 | 5 to 8 |
